Several values for one entry are separate records, joined by “and”; a condition that tells them apart may be missing. Equal entries are not always repeated.
Legend:
Assay type in all cases: cell-based
[1] = test system: Daudi cells; assay: Cell viability assay (CellTiter-Glo), Daudi; conditions: for IC50: 48 h treatment, CellTiter-Glo; for inhibition relative to 0 uM control, replicates / raw viability signal, replicates: listed as ABT199
Outline: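 Compounds added in serum-free medium for 4 h (RS4:11: 6 h), then FBS brought to 10% and incubation continued to 24 h or 48 h total at 37 °C, 5% CO2. Viability by CellTiter-Glo 2.0 luminescence; IC50 calculated.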

[2] = test system: A549 cells (control); assay: Cell viability assay (CellTiter-Glo), normal A549 (control); conditions: for luminescence reading, everage: mean of 6 wells
Protocol: The cell lines Jurkat (TIB-152), El4 (TIB-39), Daudi (ccl-213), RS4:11 (crl-1873), A549 (ccl-185), HepG2 (hb-8065) and PANC-1 (crl-1469) were purchased from ATCC (American Type Culture Collection), and MGC-803 (C6582) was purchased from Beyotime (https://www.beyotime.com/product/C6582.htm). […] Daudi and RS4:11 cells were cultured in RPMI-1640 medium (HyClone, SH30809.01) and 10% FBS (Gibco, 10099-141), whereas HepG2, MGC-803 and PANC-1 cells were cultured in MDEM (HyClone, SH30243.01). Cells were maintained at 37 °C under a humidified, 5% (v/v) CO2-containing atmosphere.
(§1) Cell viability was measured using CellTiter-Glo® 2.0 Reagent (Promega, G9242). […] After different inhibitors were added into serum-free medium and cultured for 4 h (RS4:11 for 6 h), FBS were supplemented to 10% and then incubated totally for 24 h or 48 h. Finally, the IC50 values were calculated based on measurements using a microplate reader (Thermo, Varioskan LUX). Statistical analysis was performed using software GraphPad Prism 7.0.

[3] = test system: A549 cells overexpressing BCL-2 G101V; assay: Cell viability assay, A549 stably overexpressing BCL-2 G101V; conditions: BCL2/G101V A549
Protocol: as §1
Lentivirus packaging vectors pMDLg/pRRE, pRSV-Rev, and pVSV-G were obtained from Prof. Han Jiahuai’s lab (Xiamen University). Lentiviruses were produced using 3rd-generation lentivirus packaging plasmids transiently transfected into HEK293T cells with the constructs of interest using 0.25 M CaCl2. Media was changed after 16 h, and supernatants containing infectious virus particles were harvested 24 h later. A second viral harvest was made following a further 24 h incubation with fresh media. Virus containing supernatant was filtered through a […], and stored at 4 °C or −80 °C until being used. Typically, A549 cells were seeded into 10 cm cell culture dishes at 4 ~ 8 × 10^5 cells/cm^2. An equivalent volume of virus containing culture medium was added along with polybrene (Sigma) to a final concentration of 10 µg/mL. Cells were incubated at 37 °C for 20 h, before they were washed and resuspended in fresh culture media. The expression level of BCL-2 was measured by qPCR and western blot methods.

[4] = control A549, ABT-199 0.390625 uM
[5] = control A549, ABT-199 0.78125 uM
[6] = control A549, ABT-199 1.5625 uM

## CC1(C)CCC(CN2CCN(c3ccc(C(=O)NS(=O)(=O)c4ccc(NCC5CCOCC5)c([N+](=O)[O-])c4)c(Oc4cnc5[nH]ccc5c4)c3)CC2)=C(c2ccc(Cl)cc2)C1 [venetoclax]
[1]
  IC50: 9.1 ± 0.4 µM
[1]; Daudi, 0.78125 uM
  inhibition relative to 0 uM control, replicates: -8% and 9% and -10% and 0.517% and -5.68% and 2.67%
  raw viability signal, replicates: 1603 and 1350 and 1637 and 1476 and 1568 and 1444
[1]; Daudi, 1.5625 uM
  inhibition relative to 0 uM control, replicates: 2.61% and -1.71% and 13% and -2.52% and -11% and 4.63%
  raw viability signal, replicates: 1445 and 1509 and 1291 and 1521 and 1645 and 1415
[1]; Daudi, 3.125 uM
  inhibition relative to 0 uM control, replicates: 2% and 16% (2×) and 13% and 9% and 19%
  raw viability signal, replicates: 1454 and 1252 and 1287 and 1241 and 1349 and 1200
[1]; Daudi, 6.25 uM
  inhibition relative to 0 uM control, replicates: 29% and 42% and 9% and 30% and 46% and 26%
  raw viability signal, replicates: 1056 and 861.7 and 1353 and 1036 and 800.8 and 1094
[1]; Daudi, 12.5 uM
  inhibition relative to 0 uM control, replicates: 77% and 57% and 48% and 71% and 73% and 72%
  raw viability signal, replicates: 335.5 and 640.9 and 766.9 and 436.4 and 400.1 and 410.0
[1]; Daudi, 25 uM
  inhibition relative to 0 uM control, replicates: 93% (2×) and 70% and 85% and 88% and 97%
  raw viability signal, replicates: 106.6 and 104.3 and 439.1 and 228.2 and 183.6 and 51.32
[1]; Homo sapiens, Daudi, 48 h
  IC50: 9.12 µM
[2]; A549, ABT199 0.3125 uM
  average (raw viability reading): 403300
[2]; A549, ABT199 0.3125 uM, fraction, replicates
  inhibition rate: 0.1384 and 0.2199 and 0.2562 and 0.2483 and 0.2515 and 0.3247
[2]; A549, ABT199 0.3125 uM, replicates
  raw viability reading: 394600 and 398800 and 397100 and 358300 and 457100 and 413900
[2]; A549, ABT199 0.625 uM
  average (raw viability reading): 437733
[2]; A549, ABT199 0.625 uM, fraction, replicates
  inhibition rate: 0.1102 and 0.1614 and 0.1995 and 0.1861 and 0.1882 and 0.2042
[2]; A549, ABT199 0.625 uM, replicates
  raw viability reading: 424700 and 431800 and 430700 and 422200 and 472100 and 444900
[2]; A549, ABT199 1.25 uM
  average (raw viability reading): 415750
[2]; A549, ABT199 1.25 uM, fraction, replicates
  inhibition rate: 0.1437 and 0.2152 and 0.2434 and 0.2293 and 0.2263 and 0.2404
[2]; A549, ABT199 1.25 uM, replicates
  raw viability reading: 401400 and 408900 and 410500 and 403000 and 454300 and 416400
[2]; A549, ABT199 2.5 uM
  average (raw viability reading): 279550
[2]; A549, ABT199 2.5 uM, fraction, replicates
  inhibition rate: 0.4238 and 0.4647 and 0.4862 and 0.4847 and 0.4854 and 0.4937
[2]; A549, ABT199 2.5 uM, replicates
  raw viability reading: 272600 and 273400 and 273000 and 268600 and 305700 and 284000
[2]; A549, ABT199 5 uM
  average (raw viability reading): 231967
[2]; A549, ABT199 5 uM, fraction, replicates
  inhibition rate: 0.5341 and 0.5546 and 0.5723 and 0.5614 and 0.5684 and 0.5859
[2]; A549, ABT199 5 uM, replicates
  raw viability reading: 226900 and 232700 and 229000 and 219700 and 247200 and 236300
[2]; A549, ABT199 10 uM
  average (raw viability reading): 181100
[2]; A549, ABT199 10 uM, fraction, replicates
  inhibition rate: 0.6325 and 0.6605 and 0.666 and 0.6628 and 0.6649 and 0.6653
[2]; A549, ABT199 10 uM, replicates
  raw viability reading: 177200 and 178900 and 177800 and 177600 and 195000 and 180100
[2]; A549, ABT199 20 uM
  average (raw viability reading): 174683
[2]; A549, ABT199 20 uM, fraction, replicates
  inhibition rate: 0.6679 and 0.6686 and 0.6762 and 0.6713 and 0.6664 and 0.6741
[2]; A549, ABT199 20 uM, replicates
  raw viability reading: 171800 and 174400 and 177000 and 172900 and 176200 and 175800
[2]; Homo sapiens, A549, control A549, ABT-199 0.390625 uM, replicate wells, read-out: inhibition rate
  inhibition at 0.390625 µM: 26%
[2]; Homo sapiens, A549, control A549, ABT-199 0.78125 uM, replicate wells, read-out: inhibition rate
  inhibition at 0.78125 µM: 33%
[2]; Homo sapiens, A549, control A549, ABT-199 1.5625 uM, replicate wells, read-out: inhibition rate
  inhibition at 1.5625 µM: 61%
[2]; Homo sapiens, A549, control A549, ABT-199 3.125 uM, replicate wells, read-out: inhibition rate
  inhibition at 3.125 µM: 75%
[2]; Homo sapiens, A549, control A549, ABT-199 6.25 uM, replicate wells, read-out: inhibition rate
  inhibition at 6.25 µM: 76%
[2]; Homo sapiens, A549, control A549, ABT-199 12.5 uM, replicate wells, read-out: inhibition rate
  inhibition at 12.5 µM: 81%
[2]; Homo sapiens, A549, control A549, ABT-199 25 uM, replicate wells, read-out: inhibition rate
  inhibition at 25 µM: 87%
[2]; Homo sapiens, A549, control A549, ABT-199 50 uM, replicate wells, read-out: inhibition rate
  inhibition at 50 µM: 93%
[2]; Homo sapiens, A549, control A549, ABT-199 100 uM, replicate wells, read-out: inhibition rate
  inhibition at 100 µM: 98%
[2]; Homo sapiens, A549, control A549, ABT-199 200 uM, replicate wells, read-out: inhibition rate
  inhibition at 200 µM: 99%
[2]; Homo sapiens, A549, 48 h, CellTiter-Glo, n = 6, read-out: IC50 A549 control (original cells)
  IC50: 1.1 ± 0.2 µM
[2]; [4]
  luminescence reading (raw, replicate wells): 589100 and 474500 and 578500 and 498700 and 513300 and 511200
  luminescence reading, everage: 527550
[2]; control A549, ABT-199 0.390625 uM, replicate wells
  inhibition rate: 40% and 27% and 37% and 35% and 36%
[2]; [5]
  luminescence reading (raw, replicate wells): 528700 and 466700 and 517300 and 470700 and 495500 and 475500
  luminescence reading, everage: 492400
[2]; control A549, ABT-199 0.78125 uM, replicate wells
  inhibition rate: 41% and 35% and 38% and 40%
[2]; [6]
  luminescence reading (raw, replicate wells): 312000 and 314300 and 298800 and 314500 and 309000 and 290800
  luminescence reading, everage: 306567
[2]; control A549, ABT-199 1.5625 uM, replicate wells
  inhibition rate: 60% and 62% and 63%
[2]; control A549, ABT-199 3.125 uM
  luminescence reading (raw, replicate wells): 198800 and 204700 and 191700 and 191900 and 189900 and 188800
  luminescence reading, everage: 194300
[2]; control A549, ABT-199 3.125 uM, replicate wells
  inhibition rate: 74%
[2]; control A549, ABT-199 6.25 uM
  luminescence reading (raw, replicate wells): 186800 and 193000 and 186700 and 177700 and 179700 and 186500
  luminescence reading, everage: 185067
[2]; control A549, ABT-199 6.25 uM, replicate wells
  inhibition rate: 78% and 77%
[2]; control A549, ABT-199 12.5 uM
  luminescence reading (raw, replicate wells): 154400 and 153500 and 158000 and 148200 and 149400 and 149600
  luminescence reading, everage: 152183
[2]; control A549, ABT-199 12.5 uM, replicate wells
  inhibition rate: 80%
[2]; control A549, ABT-199 25 uM
  luminescence reading (raw, replicate wells): 102900 and 103500 and 106000 and 102100 and 105400 and 102800
  luminescence reading, everage: 103783
[2]; control A549, ABT-199 50 uM
  luminescence reading (raw, replicate wells): 55930 and 54730 and 51960 and 49990 and 56070 and 56150
  luminescence reading, everage: 54138
[2]; control A549, ABT-199 50 uM, replicate wells
  inhibition rate: 94%
[2]; control A549, ABT-199 100 uM
  luminescence reading (raw, replicate wells): 16550 and 16810 and 16440 and 16110 and 17860 and 16240
  luminescence reading, everage: 16668
[2]; control A549, ABT-199 200 uM
  luminescence reading (raw, replicate wells): 6435 and 6601 and 7137 and 6682 and 6762 and 7490
  luminescence reading, everage: 6851
[3]; ABT-199 0.390625 uM
  luminescence reading (raw, replicate wells): 626600 and 647800 and 649100 and 614500 and 623500 and 619300
[3]; ABT-199 0.390625 uM, mean of 6 wells
  luminescence reading, everage: 630133
[3]; ABT-199 0.390625 uM, replicate wells
  inhibition rate: -3% and -6.36% and -6.57% and -0.889% and -2.37% and -1.68%
[3]; ABT-199 0.78125 uM
  luminescence reading (raw, replicate wells): 583300 and 568200 and 597700 and 560800 and 571600 and 528100
